Experimental data taken from ChEMBL document CHEMBL1201862, “PubChem BioAssay data set” (2004).
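96-well plates; 48 h exposure; 5 concentrations. Endpoints by linear interpolation between flanking doses. Not reached: highest tested concentration assigned. GI50 = concentration required for 50% inhibition of growth.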 The source made the active and inactive calls. Rule as the data show it: active = GI50 up to about 1.1 µM and inactive = higher.

Experiments:
Test in all cases: NCI-60 cell line screen, 48 h
[1] = system: OVCAR-5
[2] = system: RXF 631
[3] = system: SF-539
[4] = system: HCT-15
[5] = system: HT-29
[6] = system: DU-145
[7] = system: DMS-114
[8] = system: MDA-N
[9] = system: UACC-257
[10] = system: CAKI-1
[11] = system: SK-OV-3
[12] = system: SR
[13] = system: A549
[14] = system: SK-MEL-28
[15] = system: SNB-75
[16] = system: OVCAR-8
[17] = system: TK-10
[18] = system: MOLT-4
[19] = system: M14
[20] = system: KM-20L2
[21] = system: MCF7
[22] = system: A498
[23] = system: U-251
[24] = system: ACHN
[25] = system: M19-MEL
[26] = system: OVCAR-4
[27] = system: RPMI-8226
[28] = system: HOP-92
[29] = system: NCI/ADR-RES
[30] = system: COLO 205
[31] = system: Malme-3M
[32] = system: T47D
[33] = system: UACC-62
[34] = system: CCRF-CEM
[35] = system: NCI-H522
[36] = system: BT-549
[37] = system: SF-295
[38] = system: HOP-18
[39] = system: SN12C
[40] = system: 786-0
[41] = system: SF-268
[42] = system: NCI-H226
[43] = system: PC-3
[44] = system: OVCAR-3
[45] = system: SNB-78
[46] = system: K562
[47] = system: MDA-MB-231
[48] = system: HCC 2998
[49] = system: LXFL 529
[50] = system: KM12
[51] = system: HL-60
[52] = system: NCI-H23
[53] = system: DMS-273
[54] = system: MDA-MB-435
[55] = system: DLD-1
[56] = system: HCT-116
[57] = system: UO-31
[58] = system: SW-620
[59] = system: SK-MEL-2
[60] = system: HOP-62
[61] = system: RXF 393
[62] = system: SNB-19
[63] = system: IGROV-1
[64] = system: SK-MEL-5
[65] = system: EKVX
[66] = system: NCI-H460
[67] = system: LOX IMVI

Measured: GI50

COc1c(Cl)cc(NC(=S)C#N)cc1Cl
18.4 µM: [4]
inactive: [1] 37.1 µM | [2] 19.7 µM | [3] 23.8 µM | [5] 22.8 µM | [6] 35.6 µM | [7] 15.6 µM | [8] 25.5 µM | [9] 19.9 µM | [10] 22.7 µM | [11] 29.7 µM | [12] 23.8 µM | [13] 23.4 µM | [14] 26.7 µM | [15] 22.5 µM | [16] 28.4 µM | [17] 33.8 µM | [18] 32.9 µM | [19] 24.5 µM | [20] 20.1 µM | [21] 24.4 µM | [22] 19.1 µM | [23] 17.7 µM | [24] 25.6 µM | [25] 19.5 µM | [26] 29.2 µM | [27] 22.8 µM | [28] 22.6 µM | [29] 22.1 µM | [30] 17.8 µM | [31] 20.6 µM | [32] 12.6 µM | [33] 15.1 µM | [34] > 53.8 µM | [35] 19.4 µM | [36] 16.6 µM | [37] 29.5 µM | [38] 8.53 µM | [39] 20.1 µM | [40] 28.3 µM | [41] 31.2 µM | [42] 22.5 µM | [43] 24.3 µM | [44] 20.8 µM | [45] 26.7 µM | [46] > 52.2 µM | [47] 17 µM | [48] 15.9 µM | [49] 22.2 µM | [50] 30.4 µM | [51] > 100 µM | [52] 19.3 µM | [53] 30.3 µM | [54] 25 µM | [55] 31.7 µM | [56] 16.4 µM | [57] 22.3 µM | [58] 31.3 µM | [59] 23.4 µM | [60] 24.5 µM | [61] 27.3 µM | [62] 32.9 µM | [63] 27.1 µM | [64] 15.8 µM | [65] 22.2 µM | [66] 23.9 µM | [67] 20 µM

COc1cc([C@@H]2OC(=O)C3C2C(=O)O[C@H]3c2ccc(O)c(OC)c2)ccc1O (some centres undefined)
> 100 µM: [4]
inactive: [1] > 100 µM | [2] > 100 µM | [3] > 100 µM | [5] > 100 µM | [7] > 100 µM | [9] > 100 µM | [10] > 100 µM | [11] > 100 µM | [12] > 100 µM | [13] > 100 µM | [14] > 100 µM | [15] > 100 µM | [16] > 100 µM | [17] > 100 µM | [18] > 100 µM | [19] > 100 µM | [20] > 100 µM | [22] > 100 µM | [23] > 100 µM | [24] > 100 µM | [25] > 100 µM | [26] > 100 µM | [27] > 100 µM | [28] > 100 µM | [30] > 100 µM | [31] > 100 µM | [33] > 100 µM | [34] > 100 µM | [37] > 100 µM | [38] > 100 µM | [39] > 100 µM | [40] > 100 µM | [41] > 100 µM | [42] > 100 µM | [44] > 100 µM | [45] > 100 µM | [46] > 100 µM | [48] > 100 µM | [49] > 100 µM | [50] > 100 µM | [52] > 100 µM | [53] > 100 µM | [55] > 100 µM | [56] > 100 µM | [57] > 100 µM | [58] > 100 µM | [60] > 100 µM | [61] > 100 µM | [62] > 100 µM | [63] > 100 µM | [64] > 100 µM | [66] > 100 µM | [67] > 100 µM

O=C1c2ccc3c4ccccc4n(Cc4ccccc4)c3c2C(=O)N1c1ccccc1
inactive: [1] 17.6 µM | [2] 14.5 µM | [3] 17.1 µM | [5] 16.4 µM | [7] 17.9 µM | [9] 15.8 µM | [10] 12.5 µM | [11] 24.9 µM | [12] 5.61 µM | [13] 17.3 µM | [14] 17 µM | [15] 13.8 µM | [16] 15.6 µM | [17] 15.6 µM | [18] 3.05 µM | [19] 14.8 µM | [20] 20.9 µM | [22] 25.1 µM | [23] 15.8 µM | [24] > 35.7 µM | [25] 17.3 µM | [26] 8.3 µM | [27] 9.02 µM | [28] 11.4 µM | [30] 3.52 µM | [31] 16.2 µM | [33] 17.3 µM | [34] 1.88 µM | [35] 2.62 µM | [37] 14.7 µM | [38] 12.1 µM | [39] 16.5 µM | [40] 13.8 µM | [41] 19.9 µM | [42] 12.8 µM | [44] 5.5 µM | [45] 27.7 µM | [46] 6.07 µM | [48] 18.3 µM | [49] 14.3 µM | [50] 15.5 µM | [51] 4.51 µM | [52] 12.9 µM | [53] 12.4 µM | [55] 17 µM | [56] 16.4 µM | [57] 16.5 µM | [58] 5.98 µM | [59] 22.9 µM | [60] > 36.9 µM | [61] 12.7 µM | [62] 20 µM | [63] 17.8 µM | [64] 16.1 µM | [65] 17.5 µM | [66] 58.7 µM | [67] 16.2 µM
10.8 µM: [4]
